# Measurements as given in publication PMC10517462, “Small molecule targeting of the p38/Mk2 stress signaling pathways to improve cancer treatment” (BMC Cancer, 2023).
# Experiments:
# [1] = design: method as in PMID 26502061; settings: cited from earlier work
# NCI-H69 cells [2] = experiment: FACS-based (DRAQ7) viability assay; type: cell-based, human
# Procedure: […] Etoposide, SB203580 and MK2.III were all dissolved in 0.2% of DMSO before use. Cells treated only with the carrier molecule DMSO (0.2%) served as a control.
# Viability analysis was performed by staining with the […], stoichiometric DNA stain DRAQ7 (640 or 633 nm excitation and 670 nm emission; Biostatus Limited). After 48-h treatment with DNA damaging agents and/or inhibitors, cells were washed once with RPMI 1640 and resuspended in 1 ml culture media at a concentration of less than 5 × 10^5/ ml. Cells were stained with 20 µM of DRAQ7 and incubated at 37 °C for 10 min before FACS Calibur cytometer analysis. Fluorescent signals were amplified using linear mode. Cell cycle analysis was performed either by staining DRAQ7 or Propidium Iodide (PI). Cells were stained with 20 µM of DRAQ7 and incubated at 37 °C for 10 min before analysis on a FACSCalibur cytometer. Propidium Iodide (PI, excited with 488 nm laser, collected with 585/52 bandpass filter) was used in the large-scale experiments. Samples were then fixed with 70% EtOH following the viability assay and stored at 4 °C overnight before the experiment. After fixation with 70% EtOH (added drop-wise) for 24 h, samples were centrifuged into the pellet and then washed twice with ice-cold PBS. The supernatant was discarded and pellets were resuspended in 100 µl of RNase A (100 µg/ml) and 400 µl of PI ([…] in PBS). Analysis of flow cytometry data was performed using FlowJo software. Untreated, unstained cells were used as a negative control to determine the location of viable cells on the dot plots. Events below a threshold size were interpreted as cellular debris and were removed from the dataset, leaving a whole cell population.
# [3] = system: SW620 colorectal cancer cell line; experiment: CCK8 cell viability assay, SW620; type: cell-based, human; settings: MK2.III 1 µM or etoposide 150 µM alone, 24 h
# Procedure: (§1) To assess the effect of MK2.III kinase inhibitor and the etoposide (VP-16) on the viability of different cancer cell lines, cells were seeded in 96-well plates in a concentration of 5000 cells per well. After 12 h, etoposide and 1 μM MK2.III diluted in culture media were added into the wells for 24 h. NCI-H69 cells were exposed to a series of etoposide concentrations from 20 μM to 150 μM. MDA-MB-231, SW 620, and SW 480 cell lines were incubated with 150 μM etoposide. After treatment, 10 μL of the CCK-8 reagent (96992, Sigma) was added to each well for 1 h followed by optical density measurement at 450 nm using hybrid plate reader Synergy H1.
# NCI-H69 xenograft = experiment: Tumor (xenograft) suppression with combination chemotherapy in SCID mice; type: in vivo; settings: for Tumor Volume (mm^3) median (25th and 75th quartile): VP-16 12 mg/kg
# Procedure: To establish the most suitable xenograft model for the main experiment we used two mouse lines – BALB/c Nude and SCID (both female, 6 weeks, n = 20, Charles River). Both mouse lines were injected with NCI-H69 cancer cells (xenograft). Before injection, cells were grown at 37 °C in RPMI-1640 medium containing 10% FBS and pen/strep. Cells were mixed with Matrigel (1:1) and depending on the group 5 × 10^6 or 10 × 10^6 cells were injected into a mouse subcutaneously along the spine to the level of the left scapula. Mice were divided into 4 groups: (1) 5 × 10^6 NCI-H69 SCID (n = 5); (2) 5 × 10^6 NCI-H69 Nude (n = 5); (3) 10 × 10^6 NCI-H69 SCID (n = 5); and (4) 10 × 10^6 NCI-H69 Nude (n = 5).
# The main experiment (injection of the drugs) took place after the tumor growth was established. The tumor growth in mice following the injection of cells was monitored twice a week and upon reaching the volume of ~ 100 mm^3, animals were randomized into 5 groups (12 female SCID mice in each group). The drug treatment was performed as follows: the first group was a control and received a placebo in the form of PBS (tumor volume 95 ± 38 mm^3); the second group received 12 mg/kg of Etoposide (tumor volume 101 ± 51 mm^3); the third group was injected with 4 mg/kg of MK2.III (tumor volume 105 ± 44 mm^3); fourth and fifth groups were injected with 12 mg/kg of Etoposide and 4 mg/kg or 2 mg/kg of MK2.III (tumor volumes 112 ± 57 and 107 ± 49 mm^3 respectively). Drugs were injected intraperitoneally daily. Etoposide was injected 3 days after the randomization into groups and MK2.III was administered for 28 days. Tumor growth/suppression was measured using calipers every 3–4 days for the duration of the 28-day treatment and the tumor volume was calculated as follows:[…],
# Antitumor properties of drugs in the test group were determined based on the slowing of the tumor growth or tumor volume compared with the control group receiving PBS. Animal welfare was monitored throughout the study period to ensure that animals in distress were euthanized by carbon dioxide asphyxiation. All the animals were also euthanized by carbon dioxide asphyxiation following the completion of the study.
# Descriptive statistics were used to summarize the tumor size and data reported as medians and 25th and 75th quartiles. Wilcoxon sum rank test was used to investigate the effects of the treatments on tumor growth. […] Statistical analyses were performed on the SigmaPlot 11.0 software.
# NCI-H69 cells [4] = experiment: FACS-based cell cycle analysis; design: species or system human; settings: single treatment, increasing dose
# Procedure: The cells were grown in 12 well plates (Scientific Laboratory Supplies Limited, UK) in RPMI 1640 (Gibco, UK) supplemented with 10% FBS (Autogen Bioclear, UK) and 10,000 U/ml penicillin and 10 mg/ml streptomycin (Sigma, UK) at 37 °C under 5% CO2 and treated with 10, 20, 50, 100 and 150 µM of DNA damaging agent etoposide (VP-16) (Sigma, UK) in the presence or absence of p38MAPK inhibitor SB203580 (Tocris Chemical Co., UK) or MK2 inhibitor MK2.III (Merck, UK) in concentrations of 0, 0.3125, 0.625, 1.25, 2.5, and 5.0 µM. Etoposide, SB203580 and MK2.III were all dissolved in 0.2% of DMSO before use. Cells treated only with the carrier molecule DMSO (0.2%) served as a control.
# Viability analysis was performed by staining with the […], stoichiometric DNA stain DRAQ7 (640 or 633 nm excitation and 670 nm emission; Biostatus Limited). After 48-h treatment with DNA damaging agents and/or inhibitors, cells were washed once with RPMI 1640 and resuspended in 1 ml culture media at a concentration of less than 5 × 10^5/ ml. Cells were stained with 20 µM of DRAQ7 and incubated at 37 °C for 10 min before FACS Calibur cytometer analysis. Fluorescent signals were amplified using linear mode. Cell cycle analysis was performed either by staining DRAQ7 or Propidium Iodide (PI). Cells were stained with 20 µM of DRAQ7 and incubated at 37 °C for 10 min before analysis on a FACSCalibur cytometer. […]
# [5] = system: MDA-MB-231 breast cancer cell line; experiment: CCK8 cell viability assay, MDA-MB-231; type: cell-based, human; settings: MK2.III 1 µM or etoposide 150 µM alone, 24 h
# Procedure: as §1
# [6] = system: SW480 colorectal cancer cell line; experiment: CCK8 cell viability assay, SW480; type: cell-based, human; settings: MK2.III 1 µM alone, 24 h
# Procedure: as §1
compound,measurement,setting,value
O=C1NCCc2[nH]c(-c3ccnc(-c4cnc5ccccc5c4)c3)cc21 [MK2.III],Solubility,[1],poor solubility
same,Viable cells (%),"NCI-H69 cells [2]; Table 1 dose response, agent alone 0.321 µM (lowest dose), 48 h",87.4%
same,Viable cells (%),"NCI-H69 cells [2]; Table 1 dose response, agent alone 0.626 µM, 48 h",90.2%
same,Viable cells (%),"NCI-H69 cells [2]; Table 1 dose response, agent alone 1.25 µM, 48 h",87.3%
same,Viable cells (%),"NCI-H69 cells [2]; Table 1 dose response, agent alone 2.5 µM, 48 h",88.4%
same,Viable cells (%),"NCI-H69 cells [2]; Table 1 dose response, agent alone 5.0 µM (highest dose), 48 h",83.5%
same,Viable cells (%),"NCI-H69 cells [2]; Table 2, VP-16 0 µM (inhibitor alone: MK2.III 1.0 µM or SB203580 2.5 µM), DMSO control 74.6%",66.1%
same,Decrease of viability by single agent,[3],30%
same,Difference in tumor size versus control,"NCI-H69 xenograft; at any checkpoint, etoposide 12 mg/kg, MK2.III 4 mg/kg, or etoposide + MK2.III 2 mg/kg",no significant difference
same,Tumor Volume (mm^3) median (25th and 75th quartile),"NCI-H69 xenograft; day 11 upon treatment, MK2.III 4 mg/kg IP daily",516 (401;703) mm^3
same,Tumor Volume (mm^3) median (25th and 75th quartile),"NCI-H69 xenograft; day 18 upon treatment, MK2.III 4 mg/kg IP daily",843 (712;1197) mm^3
same,Tumor Volume (mm^3) median (25th and 75th quartile),"NCI-H69 xenograft; day -1 upon treatment (baseline), MK2.III 4 mg/kg IP",106 (72;132) mm^3
same,"Effect on cell cycle profile, single agent",NCI-H69 cells [4],little effect on the cell cycle profile
same,Effect of single agent on viability,[5],does not affect the viability
same,Effect of single agent on viability,[6],does not affect the viability
